In ChEMBL document CHEMBL5096221, “Discovery of a Highly Potent and Orally Bioavailable STAT3 Dual Phosphorylation Inhibitor for Pancreatic Cancer Treatment” (J Med Chem, 2022):
Calls of active or inactive are those of the source. No cut-off for these calls is given here.

Key:
[1] = biological target: Cytochrome P450 2C9 (Homo sapiens, UniProt P11712); assay: Inhibition of CYP2C9 in human liver microsomes using tolbutamide as substrate incubated for 60 mins in presence of NADPH by HPLC analysis; format: ADME, Microsome
Chain of Cytochrome P450 2C9 (P11712 whole entry): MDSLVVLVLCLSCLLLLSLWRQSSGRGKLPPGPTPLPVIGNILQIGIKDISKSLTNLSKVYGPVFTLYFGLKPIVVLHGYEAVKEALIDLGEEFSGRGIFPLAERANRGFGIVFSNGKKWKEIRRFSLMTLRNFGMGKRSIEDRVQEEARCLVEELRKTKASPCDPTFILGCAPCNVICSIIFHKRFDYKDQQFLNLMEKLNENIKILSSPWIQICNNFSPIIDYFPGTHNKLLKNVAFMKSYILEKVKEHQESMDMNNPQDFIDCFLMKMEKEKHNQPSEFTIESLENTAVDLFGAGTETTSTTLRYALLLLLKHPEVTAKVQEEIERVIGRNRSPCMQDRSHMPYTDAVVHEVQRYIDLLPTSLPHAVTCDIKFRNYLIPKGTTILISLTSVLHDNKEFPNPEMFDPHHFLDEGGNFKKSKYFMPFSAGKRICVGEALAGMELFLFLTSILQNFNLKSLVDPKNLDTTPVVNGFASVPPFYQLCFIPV

[2] = Clearance at steady state in BALB/c mouse at 1 mg/kg,iv measured upto 24 hrs by LC-MS/MS analysis; format: ADME, organism-based; conditions: BALB/c, in vivo
[3] = Toxicity in BALB/c mouse xenografted with human BXPC-3 cells assessed as effect on lung at 10 mg/kg,po administrated once daily for 8 weeks by H and E staining based microscopic analysis; format: organism-based; conditions: in vivo, 1344 h
[4] = biological target: T1, Signal transducer and activator of transcription 3 (Homo sapiens, UniProt P40763); assay: Inhibition of STAT3 in human Capan-2 cells assessed as reduction of c-Myc expression at 30 nM incubated for 4 to 24 hrs by western blot analysis; format: cell-based; conditions: time 4-24 hrs, TDE = time-dependent effect
T1 sequence (P40763 whole entry): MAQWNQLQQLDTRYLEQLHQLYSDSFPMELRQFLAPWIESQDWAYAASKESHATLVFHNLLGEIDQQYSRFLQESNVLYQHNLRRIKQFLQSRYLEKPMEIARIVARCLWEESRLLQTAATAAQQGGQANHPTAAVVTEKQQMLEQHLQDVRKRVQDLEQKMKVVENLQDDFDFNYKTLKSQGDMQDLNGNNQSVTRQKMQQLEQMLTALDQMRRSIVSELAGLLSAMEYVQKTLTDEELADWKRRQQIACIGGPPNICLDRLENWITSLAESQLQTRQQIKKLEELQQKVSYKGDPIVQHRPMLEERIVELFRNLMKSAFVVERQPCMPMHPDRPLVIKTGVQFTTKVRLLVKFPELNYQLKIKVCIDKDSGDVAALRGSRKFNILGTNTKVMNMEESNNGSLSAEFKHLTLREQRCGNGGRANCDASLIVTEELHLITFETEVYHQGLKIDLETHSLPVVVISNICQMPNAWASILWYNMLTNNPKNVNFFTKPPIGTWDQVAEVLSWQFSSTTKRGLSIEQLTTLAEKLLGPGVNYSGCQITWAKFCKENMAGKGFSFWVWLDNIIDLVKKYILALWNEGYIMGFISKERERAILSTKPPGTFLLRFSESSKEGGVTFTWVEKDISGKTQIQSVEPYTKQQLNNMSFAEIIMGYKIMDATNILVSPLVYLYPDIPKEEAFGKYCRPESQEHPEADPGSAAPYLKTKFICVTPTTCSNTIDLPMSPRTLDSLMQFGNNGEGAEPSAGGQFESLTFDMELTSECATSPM

[5] = biological target: T1, Signal transducer and activator of transcription 3; assay: Inhibition of STAT3 in human BXPC-3 cells assessed as reduction of Cyclin D1 expression at 30 nM incubated for 4 to 24 hrs by western blot analysis; format: cell-based; conditions: time 4-24 hrs, TDE = time-dependent effect
[6] = biological target: T2, Cytochrome P450 1A2 (Homo sapiens, UniProt P05177); assay: Inhibition of CYP1A2 in human liver microsomes using phenacetin as substrate incubated for 30 mins in presence of NADPH by HPLC analysis; format: ADME, Microsome
T2 sequence (P05177 whole entry): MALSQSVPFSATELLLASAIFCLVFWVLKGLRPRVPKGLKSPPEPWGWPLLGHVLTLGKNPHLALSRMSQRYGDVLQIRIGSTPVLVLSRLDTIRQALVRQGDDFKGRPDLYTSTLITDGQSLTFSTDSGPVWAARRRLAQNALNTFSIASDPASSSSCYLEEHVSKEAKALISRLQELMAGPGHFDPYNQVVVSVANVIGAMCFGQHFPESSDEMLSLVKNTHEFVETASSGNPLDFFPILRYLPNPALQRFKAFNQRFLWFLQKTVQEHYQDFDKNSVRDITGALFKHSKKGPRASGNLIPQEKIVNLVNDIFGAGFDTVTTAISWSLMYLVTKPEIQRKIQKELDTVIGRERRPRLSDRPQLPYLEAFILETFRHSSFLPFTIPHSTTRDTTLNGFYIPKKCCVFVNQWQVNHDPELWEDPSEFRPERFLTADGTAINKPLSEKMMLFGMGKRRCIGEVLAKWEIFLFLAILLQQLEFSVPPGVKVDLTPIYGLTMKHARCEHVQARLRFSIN

[7] = Toxicity in BALB/c mouse xenografted with human BXPC-3 cells assessed as effect on spleen at 30 mg/kg,po administrated once daily for 8 weeks by H and E staining based microscopic analysis; format: organism-based; conditions: in vivo, 1344 h
[8] = Microsomal stability in human liver microsomes assessed as compound remaining incubated for 60 mins in presence of NADPH by LC-MS/MS analysis; format: ADME, Microsome; conditions: read-out: Stability
[9] = Toxicity in BALB/c mouse xenografted with human BXPC-3 cells assessed as effect on liver at 30 mg/kg,po administrated once daily for 8 weeks by H and E staining based microscopic analysis; format: organism-based; conditions: in vivo, 1344 h
[10] = biological target: T1, Signal transducer and activator of transcription 3; assay: Inhibition of STAT3 in human BXPC-3 cells assessed as inhibition of STAT3 phosphorylation at Ser 727 at 10 nM incubated for 22 to 24 hrs by western blot analysis; format: cell-based; conditions: time 22-24 hrs
[11] = biological target: T1, Signal transducer and activator of transcription 3; assay: Inhibition of STAT3 in human Capan-2 cells assessed as inhibition of STAT3 phosphorylation at Tyr 705 at 10 nM incubated for 22 to 24 hrs by western blot analysis; format: cell-based; conditions: time 22-24 hrs
[12] = biological target: T1, Signal transducer and activator of transcription 3; assay: Thermal stabilization of STAT3 in human BXPC-3 cells at 10 microM at 50.6 degreeC incubated for 1 hrs by cellular thermal shift assay; format: cell-based
[13] = system: CFPAC-1; assay: Inhibition of mitochondrial respiration in human CFPAC-1 cells assessed as reduction in maximal respiration rate at 1 to 30 nM incubated for 1 hr by seahorse XF96 flux analyzer; format: functional, cell-based; conditions: dose 1-30 nM, DDE = dose-dependent effect
[14] = biological target: Cytochrome P450 2D6 (Homo sapiens, UniProt P10635); assay: Inhibition of CYP2D6 in human liver microsomes using dextromethorphan as substrate incubated for 60 mins in presence of NADPH by HPLC analysis; format: ADME, Microsome
Chain of Cytochrome P450 2D6 (P10635 whole entry): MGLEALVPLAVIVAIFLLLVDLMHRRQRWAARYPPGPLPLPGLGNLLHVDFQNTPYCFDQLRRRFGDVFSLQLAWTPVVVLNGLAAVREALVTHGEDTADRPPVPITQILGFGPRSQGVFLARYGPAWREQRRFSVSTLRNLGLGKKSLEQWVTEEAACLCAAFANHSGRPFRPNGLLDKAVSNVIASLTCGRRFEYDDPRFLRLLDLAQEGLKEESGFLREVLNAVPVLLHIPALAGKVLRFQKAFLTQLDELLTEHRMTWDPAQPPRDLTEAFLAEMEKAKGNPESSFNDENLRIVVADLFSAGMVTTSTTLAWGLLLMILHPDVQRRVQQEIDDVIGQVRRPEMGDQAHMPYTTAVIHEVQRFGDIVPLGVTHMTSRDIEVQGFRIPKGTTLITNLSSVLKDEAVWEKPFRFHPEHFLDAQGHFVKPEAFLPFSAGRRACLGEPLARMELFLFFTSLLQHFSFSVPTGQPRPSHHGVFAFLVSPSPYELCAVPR

[15] = biological target: Cytochrome P450 2C19 (Homo sapiens, UniProt P33261); assay: Inhibition of CYP2C19 in human liver microsomes; format: ADME, Microsome
Chain of Cytochrome P450 2C19 (P33261 whole entry): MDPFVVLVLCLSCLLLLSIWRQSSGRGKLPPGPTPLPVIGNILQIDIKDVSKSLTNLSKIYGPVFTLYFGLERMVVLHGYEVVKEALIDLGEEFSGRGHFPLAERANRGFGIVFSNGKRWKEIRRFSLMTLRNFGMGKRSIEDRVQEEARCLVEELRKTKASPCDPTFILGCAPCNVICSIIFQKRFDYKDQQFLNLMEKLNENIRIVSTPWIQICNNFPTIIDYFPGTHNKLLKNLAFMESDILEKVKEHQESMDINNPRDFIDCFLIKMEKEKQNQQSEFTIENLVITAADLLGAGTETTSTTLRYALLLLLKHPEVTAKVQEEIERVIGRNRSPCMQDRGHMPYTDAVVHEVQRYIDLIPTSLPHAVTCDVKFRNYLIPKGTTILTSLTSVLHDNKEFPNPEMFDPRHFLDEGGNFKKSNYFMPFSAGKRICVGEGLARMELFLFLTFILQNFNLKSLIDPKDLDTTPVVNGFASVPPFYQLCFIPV

[16] = Toxicity in BALB/c mouse xenografted with human BXPC-3 cells assessed as effect on heart at 10 mg/kg,po administrated once daily for 8 weeks by H and E staining based microscopic analysis; format: organism-based; conditions: in vivo, 1344 h
[17] = system: BXPC-3; assay: Inhibition of mitochondrial respiration in human BXPC-3 cells assessed as reduction in maximal respiration rate at 1 to 30 nM incubated for 1 hr by seahorse XF96 flux analyzer; format: functional, cell-based; conditions: dose 1-30 nM, DDE = dose-dependent effect
[18] = Microsomal stability in human liver microsomes assessed as half life incubated upto 40 mins in presence of NADPH by LC-MS/MS analysis; format: ADME, Microsome
[19] = biological target: T1, Signal transducer and activator of transcription 3; assay: Thermal stabilization of STAT3 in human BXPC-3 cells at 10 microM at 42.9 degreeC incubated for 1 hrs by cellular thermal shift assay; format: cell-based
[20] = biological target: T1, Signal transducer and activator of transcription 3; assay: Inhibition of STAT3 in human BXPC-3 cells assessed as reduction of Cyclin D1 expression at 1 to 30 nM incubated for 22 to 24 hrs by western blot analysis; format: cell-based; conditions: dose 1-30 nM, time 22-24 hrs, DDE = dose-dependent effect
[21] = biological target: T1, Signal transducer and activator of transcription 3; assay: Inhibition of STAT3 in human Capan-2 cells assessed as reduction of c-Myc expression at 1 to 30 nM incubated for 22 to 24 hrs by western blot analysis; format: cell-based; conditions: dose 1-30 nM, time 22-24 hrs, DDE = dose-dependent effect
[22] = Microsomal stability in dog liver microsomes assessed as compound remaining incubated for 60 mins in presence of NADPH by LC-MS/MS analysis; format: ADME, Canis lupus familiaris, Microsome; conditions: read-out: Stability
[23] = system: PC-3; assay: Inhibition of colony formation in human PC-3 cells at 1000 nM incubated for 5 to 7 days by crystal violet staining assay; format: functional, cell-based; conditions: time 5-7 day
[24] = Toxicity in BALB/c mouse xenografted with human BXPC-3 cells assessed as effect on kidney at 30 mg/kg,po administrated once daily for 8 weeks by H and E staining based microscopic analysis; format: organism-based; conditions: in vivo, 1344 h
[25] = biological target: T1, Signal transducer and activator of transcription 3; assay: Inhibition of STAT3 in human BXPC-3 cells assessed as inhibition of STAT3 phosphorylation at Tyr 705 at 30 nM incubated for 4 to 24 hrs by western blot analysis; format: cell-based; conditions: time 4-24 hrs, TDE = time-dependent effect
[26] = system: BXPC-3; assay: Anti-proliferative activity against human BXPC-3 cells assessed as cell growth inhibition incubated for 72 hrs by MTS assay; format: functional, cell-based; conditions: BXPC-3, 72 h
[27] = system: Capan-2; assay: Inhibition of colony formation in human Capan-2 cells at 3 to 10 nM incubated for 5 to 7 days by crystal violet staining assay; format: functional, cell-based; conditions: dose 3-10 nM, time 5-7 day, DDE = dose-dependent effect
[28] = system: BXPC-3; assay: Inhibition of colony formation in human BXPC-3 cells at 3 to 10 nM incubated for 5 to 7 days by crystal violet staining assay; format: functional, cell-based; conditions: dose 3-10 nM, time 5-7 day, DDE = dose-dependent effect
[29] = Microsomal stability in rat liver microsomes assessed as half life incubated upto 40 mins in presence of NADPH by LC-MS/MS analysis; format: ADME, Microsome

IC50 [1]: > 50 µM
clearance [2]: 1.43 mL/min/kg
inhibition [4]: Tde
inhibition [5]: Tde
IC50 [6]: > 50 µM
remaining at 1 h [8]: 59.5%
inhibition [10]: Active
inhibition [11]: Active
Activity [12]: Active
IC50 [14]: > 50 µM
IC50 [15]: > 50 µM
half-life [18]: 1.26 h
Activity [19]: Active
inhibition [20]: Dde
inhibition [21]: Dde
remaining at 1 h [22]: 55.8%
inhibition [25]: Tde
IC50 [26]: 0.0004 µM
half-life [29]: 1.37 h
SMILES: COc1ccc(-c2noc(-c3cnc(Oc4ccc5cc(C(=O)N6CCN(Cc7ccc(OCC(F)(F)F)cc7)CC6)n(C)c5c4)cn3)n2)cc1
Activity [3]: Non-Toxic
Activity [7]: Non-Toxic
Activity [9]: Non-Toxic
inhibition [13]: Dde
Activity [16]: Non-Toxic
inhibition [17]: Dde
inhibition [23]: Active
Activity [24]: Non-Toxic
inhibition [27]: Dde
inhibition [28]: Dde
